From ChEMBL document CHEMBL1132172, “Synthesis of a series of stromelysin-selective thiadiazole urea matrix metalloproteinase inhibitors” (J Med Chem, 1999)

Biological target: T1, Interstitial collagenase (Homo sapiens, UniProt P03956)
T1 sequence (P03956 whole entry): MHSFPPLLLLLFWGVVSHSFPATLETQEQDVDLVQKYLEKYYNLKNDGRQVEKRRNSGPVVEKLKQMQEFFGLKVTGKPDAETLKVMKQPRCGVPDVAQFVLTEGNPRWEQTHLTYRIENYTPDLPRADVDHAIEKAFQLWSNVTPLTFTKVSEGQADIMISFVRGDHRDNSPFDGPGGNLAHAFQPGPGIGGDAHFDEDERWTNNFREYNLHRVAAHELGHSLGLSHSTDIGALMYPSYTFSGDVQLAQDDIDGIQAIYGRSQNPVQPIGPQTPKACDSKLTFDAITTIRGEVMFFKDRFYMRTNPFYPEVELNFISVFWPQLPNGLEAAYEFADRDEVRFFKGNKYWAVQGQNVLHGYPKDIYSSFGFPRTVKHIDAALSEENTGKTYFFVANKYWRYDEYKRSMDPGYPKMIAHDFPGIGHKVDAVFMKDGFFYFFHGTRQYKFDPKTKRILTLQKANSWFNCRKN
Description: Binding affinity for matrix metalloprotease-1

`CNC(=O)[C@H](Cc1ccccc1)NC(=O)Nc1nnc(S)s1` was tested. Which Ki did it give?
Its Ki is 31 µM.

`CNC(=O)[C@H](CC(C)C)NC(=O)Nc1nnc(S)s1` was tested. Which Ki did it give?
Its Ki is over 200 µM.

Which Ki does the source give for `CNC(=O)[C@H](CO)NC(=O)Nc1n[nH]c(=S)s1` here?
Its Ki is over 200 µM.

With `COc1ccc(N2CCN(C(=O)[C@H](Cc3ccccc3)NC(=O)Nc3nnc(S)s3)CC2)cc1` as the compound, how does the Ki read?
Its Ki is 6 µM.

Which Ki does the source give for `COc1ccc(CNC(=O)[C@H](Cc2ccccc2)NC(=O)Nc2nnc(S)s2)cc1OC` here?
The Ki was 6.2 µM.

Which Ki does the source give for `O=C(Nc1nnc(S)s1)N[C@@H](Cc1ccccc1)C(=O)N1CCSCC1` here?
Its Ki is 12 µM.

`O=C(Nc1nnc(S)s1)N[C@@H](Cc1ccccc1)C(=O)O` was tested. Which Ki did it give?
Its Ki is over 200 µM.

With `O=C(Nc1nnc(S)s1)N[C@@H](Cc1ccccc1)C(=O)N1CCCC1` as the compound, how does the Ki read?
The Ki was 20 µM.

`CNC(=O)[C@H](Cc1c(F)c(F)c(F)c(F)c1F)NC(=O)Nc1nnc(S)s1` was tested. Which Ki did it give?
The Ki was 3 µM.

How did the Ki turn out when `O=C(Nc1nnc(S)s1)N[C@@H](Cc1ccccc1)C(=O)N1CCN(Cc2ccccc2)CC1` was run?
Its Ki is 29 µM.

`O=C(Nc1nnc(S)s1)N[C@@H](Cc1ccccc1)C(=O)N1CCN(c2ccccn2)CC1` was tested. Which Ki did it give?
Its Ki is 1.5 µM.

For `CNC(=O)[C@H](Cc1ccc(O)cc1)NC(=O)Nc1nnc(S)s1`, which Ki is on record?
The Ki was 21 µM.

`O=C(Nc1nnc(S)s1)N[C@@H](Cc1ccccc1)C(=O)NCC1CCCCC1` was tested. Which Ki did it give?
The Ki was over 200 µM.

For `CNC(=O)[C@H](Cc1ccc(OC)cc1)NC(=O)Nc1nnc(S)s1`, which Ki is on record?
Its Ki is 16 µM.

Which Ki does the source give for `O=C(Nc1nnc(S)s1)N[C@@H](Cc1ccc(F)cc1)C(=O)N1CCN(c2ccccn2)CC1` here?
The Ki was 1.8 µM.

Which Ki does the source give for `O=C(Nc1nnc(S)s1)N[C@@H](Cc1c(F)c(F)c(F)c(F)c1F)C(=O)N1CCN(c2ccccn2)CC1` here?
The Ki was 0.77 µM.

Which Ki does the source give for `COC(=O)[C@H](Cc1ccccc1)NC(=O)Nc1nnc(S)s1` here?
The Ki was 17 µM.

Which Ki does the source give for `NC(=O)[C@H](Cc1ccccc1)NC(=O)Nc1nnc(S)s1` here?
The Ki was over 200 µM.

`O=C(Nc1nnc(S)s1)N[C@@H](Cc1ccccc1)C(=O)N1CCN(c2ncccn2)CC1` was tested. Which Ki did it give?
Its Ki is 16 µM.

With `O=C(Nc1nnc(S)s1)N[C@@H](Cc1ccccc1)C(=O)NCc1ccccc1` as the compound, how does the Ki read?
Its Ki is 15 µM.

With `CNC(=O)[C@@H](Cc1ccccc1)NC(=O)Nc1n[nH]c(=S)s1` as the compound, how does the Ki read?
The Ki was over 200 µM.

`CNC(=O)[C@H](CC1CCCCC1)NC(=O)Nc1n[nH]c(=S)s1` was tested. Which Ki did it give?
Its Ki is 67 µM.

With `CNC(=O)[C@@H](NC(=O)Nc1n[nH]c(=S)s1)c1ccccc1` as the compound, how does the Ki read?
Its Ki is 41 µM.

For `CNC(=O)CNC(=O)Nc1n[nH]c(=S)s1`, which Ki is on record?
The Ki was over 100 µM.

`CN(C)C(=O)[C@H](Cc1ccccc1)NC(=O)Nc1nnc(S)s1` was tested. Which Ki did it give?
Its Ki is 226 µM.

How did the Ki turn out when `CNC(=O)[C@H](COCc1ccccc1)NC(=O)Nc1nnc(S)s1` was run?
Its Ki is 52 µM.

With `CNC(=O)[C@H](Cc1ccc(F)cc1)NC(=O)Nc1nnc(S)s1` as the compound, how does the Ki read?
Its Ki is 8.9 µM.

For `O=C(Nc1nnc(S)s1)N[C@@H](Cc1ccccc1)C(=O)N1CCOCC1`, which Ki is on record?
The Ki was 32 µM.

Which Ki does the source give for `CNC(=O)[C@H](Cc1ccc([N+](=O)[O-])cc1)NC(=O)Nc1nnc(S)s1` here?
Its Ki is 15 µM.

Biological target: Stromelysin-1 (Homo sapiens, UniProt P08254)
Sequence (P08254 whole entry): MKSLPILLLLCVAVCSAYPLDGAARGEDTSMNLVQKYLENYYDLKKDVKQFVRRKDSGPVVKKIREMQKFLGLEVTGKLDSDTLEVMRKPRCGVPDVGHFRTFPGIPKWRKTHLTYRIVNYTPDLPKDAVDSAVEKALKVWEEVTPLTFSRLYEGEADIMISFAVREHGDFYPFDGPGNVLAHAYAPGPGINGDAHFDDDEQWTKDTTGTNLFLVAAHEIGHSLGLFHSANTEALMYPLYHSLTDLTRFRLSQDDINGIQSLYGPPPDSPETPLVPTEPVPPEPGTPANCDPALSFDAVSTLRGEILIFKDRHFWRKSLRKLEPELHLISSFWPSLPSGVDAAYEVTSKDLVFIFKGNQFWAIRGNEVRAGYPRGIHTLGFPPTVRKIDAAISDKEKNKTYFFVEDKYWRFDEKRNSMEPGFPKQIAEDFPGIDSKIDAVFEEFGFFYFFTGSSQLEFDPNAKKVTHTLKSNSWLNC
Description: Inhibitory concentration against Matrix metalloprotease-3

For `Sc1nnc(NCc2ccccc2)s1`, which IC50 is on record?
The IC50 was 97 µM.

`O=C(NCc1ccccc1)Nc1nncs1` was tested. Which IC50 did it give?
Its IC50 is over 2000 µM.

With `O=C(NCc1cccc2ccccc12)Nc1nnc(S)s1` as the compound, how does the IC50 read?
The IC50 was 23 µM.

For `Sc1nnc(Nc2ccccc2)s1`, which IC50 is on record?
The IC50 was 190 µM.

How did the IC50 turn out when `O=C(Nc1ccc(F)cc1)Nc1nnc(S)s1` was run?
The IC50 was 29 µM.

With `Sc1nnc(NCCCCc2ccccc2)s1` as the compound, how does the IC50 read?
Its IC50 is 318 µM.

`Sc1nnc(NCCc2ccccc2)s1` was tested. Which IC50 did it give?
Its IC50 is 47 µM.

For `CCN(C(=O)NCCc1ccccc1)c1nnc(S)s1`, which IC50 is on record?
The IC50 was over 1000 µM.

With `Cn1nc(NC(=O)NCCc2ccccc2)sc1=S` as the compound, how does the IC50 read?
The IC50 was 694 µM.

Which IC50 does the source give for `Sc1nnc(NCc2ccco2)s1` here?
The IC50 was 289 µM.

For `CCNc1nnc(S)s1`, which IC50 is on record?
The IC50 was over 2000 µM.

For `O=C(NCCCCc1ccccc1)Nc1nnc(S)s1`, which IC50 is on record?
Its IC50 is 34 µM.

For `Cc1cccc(Cl)c1Nc1nnc(S)s1`, which IC50 is on record?
The IC50 was 173 µM.

Which IC50 does the source give for `O=C(Nc1ccccc1)Nc1nnc(S)s1` here?
The IC50 was 99 µM.

For `CCCCCCCCCCCCNc1nnc(S)s1`, which IC50 is on record?
The IC50 was 97 µM.
